Measured values published in PubChem BioAssay (NCI).
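Cultured in 96-well plates, cells were exposed to test compound for 48 hours across five concentrations. GI50: concentration for 50% inhibition of growth. The concentration for full growth arrest is given as TGI.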

Assays:
Assay in all cases: growth of human tumour cells (NCI), 48 h; in the data active = GI50 below about 0.43 µM; inactive = the rest
786-0 renal = tested on: 786-0 renal
A498 renal = tested on: A498 renal
A549 NSCLC = tested on: A549 NSCLC
ACHN renal = tested on: ACHN renal
BT-549 breast = tested on: BT-549 breast
CAKI-1 renal = tested on: CAKI-1 renal
CCRF-CEM leukemia = tested on: CCRF-CEM leukemia
COLO 205 colon = tested on: COLO 205 colon
DU-145 prostate = tested on: DU-145 prostate
EKVX NSCLC = tested on: EKVX NSCLC
HCC-2998 colon = tested on: HCC-2998 colon
HCT-116 colon = tested on: HCT-116 colon
HCT-15 colon = tested on: HCT-15 colon
HL-60(TB) leukemia = tested on: HL-60(TB) leukemia
HOP-62 NSCLC = tested on: HOP-62 NSCLC
HOP-92 NSCLC = tested on: HOP-92 NSCLC
HS 578T breast = tested on: HS 578T breast
HT29 colon = tested on: HT29 colon
IGROV1 ovarian = tested on: IGROV1 ovarian
K-562 leukemia = tested on: K-562 leukemia
KM12 colon = tested on: KM12 colon
LOX IMVI melanoma = tested on: LOX IMVI melanoma
M14 melanoma = tested on: M14 melanoma
MALME-3M melanoma = tested on: MALME-3M melanoma
MCF7 breast = tested on: MCF7 breast
MDA-MB-231 breast = tested on: MDA-MB-231 breast
MDA-MB-435 = tested on: MDA-MB-435
MDA-MB-468 breast = tested on: MDA-MB-468 breast
MOLT-4 leukemia = tested on: MOLT-4 leukemia
NCI-H226 lung = tested on: NCI-H226 lung
NCI-H23 lung = tested on: NCI-H23 lung
NCI-H460 lung = tested on: NCI-H460 lung
NCI-H522 lung = tested on: NCI-H522 lung
NCI/ADR-RES ovarian = tested on: NCI/ADR-RES ovarian
OVCAR-3 ovarian = tested on: OVCAR-3 ovarian
OVCAR-4 ovarian = tested on: OVCAR-4 ovarian
OVCAR-5 ovarian = tested on: OVCAR-5 ovarian
OVCAR-8 ovarian = tested on: OVCAR-8 ovarian
PC-3 prostate = tested on: PC-3 prostate
RPMI-8226 leukemia = tested on: RPMI-8226 leukemia
RXF 393 renal = tested on: RXF 393 renal
SF-268 CNS = tested on: SF-268 CNS
SF-295 CNS = tested on: SF-295 CNS
SF-539 CNS = tested on: SF-539 CNS
SK-MEL-2 melanoma = tested on: SK-MEL-2 melanoma
SK-MEL-28 melanoma = tested on: SK-MEL-28 melanoma
SK-MEL-5 melanoma = tested on: SK-MEL-5 melanoma
SK-OV-3 ovarian = tested on: SK-OV-3 ovarian
SN12C renal = tested on: SN12C renal
SNB-19 CNS = tested on: SNB-19 CNS
SNB-75 CNS = tested on: SNB-75 CNS
SW-620 colon = tested on: SW-620 colon
T-47D breast = tested on: T-47D breast
TK-10 renal = tested on: TK-10 renal
U251 CNS = tested on: U251 CNS
UACC-257 melanoma = tested on: UACC-257 melanoma
UACC-62 melanoma = tested on: UACC-62 melanoma
UO-31 renal = tested on: UO-31 renal

CN(C)CCCNC(=O)c1cc(NC(=O)c2cc(NC(=O)c3ccc(/C=C/c4ccccc4)cc3)cn2C)cn1C
25.7 µM: TGI (HCT-15 colon)
25.9 µM: TGI (MOLT-4 leukemia)
18.5 µM: TGI (KM12 colon)
10.9 µM: TGI (SF-539 CNS) | TGI (SK-MEL-2 melanoma)
13.4 µM: TGI (HCT-116 colon)
10.7 µM: TGI (U251 CNS)
24.6 µM: TGI (SNB-75 CNS)
20.7 µM: TGI (HL-60(TB) leukemia)
8.86 µM: TGI (LOX IMVI melanoma)
> 31.3 µM: TGI (786-0 renal) | TGI (A498 renal) | TGI (A549 NSCLC) | TGI (ACHN renal) | TGI (CAKI-1 renal) | TGI (DU-145 prostate) | TGI (EKVX NSCLC) | TGI (HCC-2998 colon) | TGI (HS 578T breast) | TGI (IGROV1 ovarian) | TGI (MALME-3M melanoma) | TGI (MDA-MB-231 breast) | TGI (MDA-MB-435) | TGI (NCI-H226 lung) | TGI (NCI-H23 lung) | TGI (OVCAR-4 ovarian) | TGI (OVCAR-5 ovarian) | TGI (PC-3 prostate) | TGI (SF-268 CNS) | TGI (SF-295 CNS) | TGI (SK-MEL-28 melanoma) | TGI (SK-MEL-5 melanoma) | TGI (SK-OV-3 ovarian) | TGI (SN12C renal) | TGI (SNB-19 CNS) | TGI (T-47D breast) | TGI (TK-10 renal) | TGI (UACC-257 melanoma) | TGI (UACC-62 melanoma) | TGI (UO-31 renal)
24.3 µM: TGI (NCI/ADR-RES ovarian)
26.4 µM: TGI (COLO 205 colon) | TGI (OVCAR-3 ovarian)
14.5 µM: TGI (MDA-MB-468 breast)
18.7 µM: TGI (OVCAR-8 ovarian)
21.1 µM: TGI (HT29 colon)
19 µM: TGI (K-562 leukemia) | TGI (RXF 393 renal)
14.9 µM: TGI (SW-620 colon)
24.2 µM: TGI (NCI-H522 lung)
17.7 µM: TGI (HOP-92 NSCLC)
6.85 µM: TGI (MCF7 breast)
16.2 µM: TGI (NCI-H460 lung)
21.5 µM: TGI (CCRF-CEM leukemia)
19.8 µM: TGI (HOP-62 NSCLC)
10.1 µM: TGI (M14 melanoma)
inactive: GI50 (786-0 renal) 9.14 µM | GI50 (A498 renal) 25.2 µM | GI50 (A549 NSCLC) 13.3 µM | GI50 (ACHN renal) 11.5 µM | GI50 (BT-549 breast) 4.28 µM | GI50 (CAKI-1 renal) 10.9 µM | GI50 (CCRF-CEM leukemia) 5.03 µM | GI50 (COLO 205 colon) 9.44 µM | GI50 (DU-145 prostate) 11.5 µM | GI50 (EKVX NSCLC) 10.6 µM | GI50 (HCC-2998 colon) 10.1 µM | GI50 (HCT-116 colon) 5.36 µM | GI50 (HCT-15 colon) 7.26 µM | GI50 (HL-60(TB) leukemia) 7.05 µM | GI50 (HOP-62 NSCLC) 7.16 µM | GI50 (HOP-92 NSCLC) 3.95 µM | GI50 (HS 578T breast) 8.39 µM | GI50 (HT29 colon) 5.89 µM | GI50 (IGROV1 ovarian) 22.5 µM | GI50 (K-562 leukemia) 5.83 µM | GI50 (KM12 colon) 7.16 µM | GI50 (LOX IMVI melanoma) 4.67 µM | GI50 (M14 melanoma) 5.05 µM | GI50 (MALME-3M melanoma) 7.41 µM | GI50 (MCF7 breast) 1.71 µM | GI50 (MDA-MB-231 breast) 8.81 µM | GI50 (MDA-MB-435) 8.48 µM | GI50 (MDA-MB-468 breast) 5.72 µM | GI50 (MOLT-4 leukemia) 7.27 µM | GI50 (NCI-H226 lung) 9.93 µM | GI50 (NCI-H23 lung) 13.2 µM | GI50 (NCI-H460 lung) 6.91 µM | GI50 (NCI-H522 lung) 7.34 µM | GI50 (NCI/ADR-RES ovarian) 7.76 µM | GI50 (OVCAR-3 ovarian) 6.75 µM | GI50 (OVCAR-4 ovarian) 16.1 µM | GI50 (OVCAR-5 ovarian) 20.3 µM | GI50 (OVCAR-8 ovarian) 6.5 µM | GI50 (PC-3 prostate) 10.1 µM | GI50 (RPMI-8226 leukemia) 3.51 µM | GI50 (RXF 393 renal) 3.2 µM | GI50 (SF-268 CNS) 10.6 µM | GI50 (SF-295 CNS) 8.56 µM | GI50 (SF-539 CNS) 5.41 µM | GI50 (SK-MEL-2 melanoma) 5.32 µM | GI50 (SK-MEL-28 melanoma) 15.2 µM | GI50 (SK-MEL-5 melanoma) 8.85 µM | GI50 (SK-OV-3 ovarian) 17.6 µM | GI50 (SN12C renal) 7.41 µM | GI50 (SNB-19 CNS) 16.7 µM | GI50 (SNB-75 CNS) 1.98 µM | GI50 (SW-620 colon) 6.62 µM | GI50 (T-47D breast) 6.01 µM | GI50 (TK-10 renal) 12.1 µM | GI50 (U251 CNS) 5.36 µM | GI50 (UACC-257 melanoma) 10.5 µM | GI50 (UACC-62 melanoma) 7.46 µM | GI50 (UO-31 renal) 9.91 µM
16.5 µM: TGI (BT-549 breast) | TGI (RPMI-8226 leukemia)
